Laboratory results from article PMC11030672 (Cancer Immunology, Immunotherapy : CII, 2008).

What was measured:
[1] = test system: HLA-A3; assay: Assembly assay for peptide binding to MHC class I molecules; settings: T2-A3 cells
[2] = test system: T2-A3 cells; assay: 51Cr-release cytotoxicity of T cell clone 9 against peptide-pulsed T2-A3 cells; type: cell-based; settings: peptide 10 μM; E:T ratios 9:1, 3:1, 1:1, 0,3:1; duplicates
[3] = test system: HLA-A3+ melanoma cell line FM3; assay: 51Cr-release cytotoxicity of clone 9 against FM3 melanoma cells; type: cell-based; settings: unlabeled T2-A3 cells pulsed with 10 μM peptide; inhibitor to target ratio 20:1; Fig. 4b, c

## ILRGSVAHK [Influenza NP265–273, reference compound]
[1]
  binding to HLA-A3 (in words): high affinity

## RAGLQVRKNK [Rho1]
[2]
  lysis of peptide-pulsed T2-A3 cells by clone 9: effectively lysed
[1]
  binding to HLA-A3 (in words): only bound very weakly to HLA-A3

## RLGLQVRKNK [Rho1L2]
[3]
  cold target inhibition of FM3 killing by clone 9: completely abrogated the killing of FM3 melanoma cells
[2]
  lysis of peptide-pulsed T2-A3 cells by clone 9: effectively lysed
[1]
  binding to HLA-A3 (in words): bound with intermediate affinity
